Assays:
[1] = molecular target: T1, EGFR(L747-S752del, P753S) (Homo sapiens, UniProt P00533, DEL747-752/P753S); assay: KINOMEscan; type: binding; conditions: read-out: %Ctrl @ 10000nM
T1 construct: purchased DiscoverX KINOMEscan

FLT1 = molecular target: T2, FLT1 (Homo sapiens, UniProt P17948); assay: KINOMEscan; type: binding; conditions: read-out: %Ctrl @ 10000nM
T2 construct: purchased DiscoverX KINOMEscan

MLK3 = molecular target: T3, MLK3 (Homo sapiens, UniProt Q16584); assay: KINOMEscan; type: binding; conditions: read-out: %Ctrl @ 10000nM
T3 construct: purchased DiscoverX KINOMEscan

TTK = molecular target: T4, TTK (Homo sapiens, UniProt P33981); assay: KINOMEscan; type: binding; conditions: read-out: %Ctrl @ 10000nM
T4 construct: DNA label for qPCR (T7 phage fusion or DNA tag); purchased DiscoverX scanMAX; host or cells: E. coli BL21-derived (T7 phage) or HEK-293
T4 sequence (P33981 whole entry, the tested form may be a part): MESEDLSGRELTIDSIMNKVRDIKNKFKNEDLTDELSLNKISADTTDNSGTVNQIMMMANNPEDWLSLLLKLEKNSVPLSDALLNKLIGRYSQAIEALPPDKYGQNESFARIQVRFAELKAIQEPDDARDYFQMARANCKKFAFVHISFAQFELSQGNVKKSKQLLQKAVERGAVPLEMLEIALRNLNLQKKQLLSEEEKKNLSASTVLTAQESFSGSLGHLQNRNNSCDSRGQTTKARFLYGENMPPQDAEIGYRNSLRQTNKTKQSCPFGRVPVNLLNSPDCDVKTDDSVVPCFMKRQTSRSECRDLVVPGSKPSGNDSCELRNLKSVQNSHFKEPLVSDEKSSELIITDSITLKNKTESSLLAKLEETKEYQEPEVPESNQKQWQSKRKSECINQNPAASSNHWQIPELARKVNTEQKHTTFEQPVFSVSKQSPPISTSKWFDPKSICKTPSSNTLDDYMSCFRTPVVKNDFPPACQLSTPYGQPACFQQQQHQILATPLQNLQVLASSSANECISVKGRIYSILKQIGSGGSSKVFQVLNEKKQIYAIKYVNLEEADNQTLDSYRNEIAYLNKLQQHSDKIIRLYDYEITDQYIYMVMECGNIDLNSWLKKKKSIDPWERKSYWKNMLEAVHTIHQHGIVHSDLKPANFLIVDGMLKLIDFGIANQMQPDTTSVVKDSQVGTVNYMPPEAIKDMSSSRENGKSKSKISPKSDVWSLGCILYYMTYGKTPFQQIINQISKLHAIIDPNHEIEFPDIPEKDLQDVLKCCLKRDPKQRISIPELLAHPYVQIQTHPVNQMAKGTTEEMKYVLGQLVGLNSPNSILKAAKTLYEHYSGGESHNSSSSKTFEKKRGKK

TRKB = molecular target: T5, TRKB (Homo sapiens, UniProt Q16620); assay: KINOMEscan; type: binding; conditions: read-out: %Ctrl @ 10000nM
T5 construct: purchased DiscoverX KINOMEscan
T5 sequence (Q16620 32-822): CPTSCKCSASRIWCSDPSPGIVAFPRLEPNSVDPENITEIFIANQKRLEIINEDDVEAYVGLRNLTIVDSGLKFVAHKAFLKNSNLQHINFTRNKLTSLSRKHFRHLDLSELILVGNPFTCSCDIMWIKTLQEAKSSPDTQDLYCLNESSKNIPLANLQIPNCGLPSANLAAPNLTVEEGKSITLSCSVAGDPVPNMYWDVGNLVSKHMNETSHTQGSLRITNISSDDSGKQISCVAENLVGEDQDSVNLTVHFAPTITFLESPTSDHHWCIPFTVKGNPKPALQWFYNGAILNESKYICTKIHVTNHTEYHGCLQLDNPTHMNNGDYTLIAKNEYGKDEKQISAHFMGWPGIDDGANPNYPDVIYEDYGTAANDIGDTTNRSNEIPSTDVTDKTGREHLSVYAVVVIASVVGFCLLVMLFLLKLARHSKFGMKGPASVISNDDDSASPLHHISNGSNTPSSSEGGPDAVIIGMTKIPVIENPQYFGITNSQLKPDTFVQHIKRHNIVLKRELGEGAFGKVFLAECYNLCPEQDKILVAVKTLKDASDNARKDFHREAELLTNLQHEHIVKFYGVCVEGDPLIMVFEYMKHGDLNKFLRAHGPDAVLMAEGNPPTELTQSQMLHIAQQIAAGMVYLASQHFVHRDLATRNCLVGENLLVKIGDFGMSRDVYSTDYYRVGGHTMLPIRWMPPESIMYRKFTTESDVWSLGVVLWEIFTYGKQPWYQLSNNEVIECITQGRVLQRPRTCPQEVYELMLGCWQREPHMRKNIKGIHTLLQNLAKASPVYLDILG

TIE2 = molecular target: T6, TIE2 (Homo sapiens, UniProt Q02763); assay: KINOMEscan; type: binding; conditions: read-out: %Ctrl @ 10000nM
T6 construct: purchased DiscoverX KINOMEscan
T6 sequence (Q02763 23-1124): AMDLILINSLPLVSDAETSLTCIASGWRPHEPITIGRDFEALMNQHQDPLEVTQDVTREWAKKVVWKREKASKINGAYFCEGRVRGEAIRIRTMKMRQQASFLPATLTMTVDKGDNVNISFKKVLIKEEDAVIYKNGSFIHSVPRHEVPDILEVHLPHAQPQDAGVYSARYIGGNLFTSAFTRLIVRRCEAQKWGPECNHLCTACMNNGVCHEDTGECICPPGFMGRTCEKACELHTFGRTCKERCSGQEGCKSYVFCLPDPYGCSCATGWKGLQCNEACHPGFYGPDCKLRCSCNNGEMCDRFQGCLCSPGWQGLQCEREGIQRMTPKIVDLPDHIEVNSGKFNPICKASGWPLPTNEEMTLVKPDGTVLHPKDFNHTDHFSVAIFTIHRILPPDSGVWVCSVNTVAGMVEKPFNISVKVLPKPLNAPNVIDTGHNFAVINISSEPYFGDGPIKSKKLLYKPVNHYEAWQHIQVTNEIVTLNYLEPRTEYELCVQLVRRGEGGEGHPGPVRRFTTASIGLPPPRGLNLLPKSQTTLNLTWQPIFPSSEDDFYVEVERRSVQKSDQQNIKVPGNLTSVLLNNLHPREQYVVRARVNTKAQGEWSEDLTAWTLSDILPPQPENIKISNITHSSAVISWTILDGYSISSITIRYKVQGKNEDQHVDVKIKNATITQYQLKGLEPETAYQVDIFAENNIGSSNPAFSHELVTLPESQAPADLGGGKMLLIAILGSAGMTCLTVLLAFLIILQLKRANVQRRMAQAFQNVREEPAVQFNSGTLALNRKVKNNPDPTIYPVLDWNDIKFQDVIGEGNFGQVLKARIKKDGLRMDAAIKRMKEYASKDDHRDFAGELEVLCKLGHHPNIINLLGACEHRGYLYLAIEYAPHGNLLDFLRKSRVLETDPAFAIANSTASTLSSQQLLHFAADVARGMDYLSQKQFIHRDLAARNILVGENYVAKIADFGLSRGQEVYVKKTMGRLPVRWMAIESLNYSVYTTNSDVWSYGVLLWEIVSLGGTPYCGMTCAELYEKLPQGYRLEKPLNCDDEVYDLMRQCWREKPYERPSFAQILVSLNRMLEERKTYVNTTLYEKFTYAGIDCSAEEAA

BMX = molecular target: T7, BMX (Homo sapiens, UniProt P51813); assay: KINOMEscan; type: binding; conditions: read-out: %Ctrl @ 10000nM
T7 construct: purchased DiscoverX KINOMEscan

KIT(V559D) = molecular target: T8, KIT(V559D) (Homo sapiens, UniProt P10721, V559D); assay: KINOMEscan; type: binding; conditions: read-out: %Ctrl @ 10000nM
T8 construct: purchased DiscoverX KINOMEscan

FGFR3 = molecular target: T9, FGFR3 (Homo sapiens, UniProt P22607); assay: KINOMEscan; type: binding; conditions: read-out: %Ctrl @ 10000nM
T9 construct: purchased DiscoverX KINOMEscan

tissue CoA = assay: Mouse efficacy testing: tissue CoA levels; type: in vivo
Protocol: C57Bl6/J mice (8-week-old) were purchased from Jackson Laboratory and were fed either a regular diet (autoclavable rodent breeder diet, Labdiet) or an isocaloric, pantothenic acid-supplemented diet (1000 ppm) for 2 weeks prior to the experiment. The mice were maintained at room temperature 72° ± 2 °F, humidity 50 ± 10% and a 14 h light /10 h dark cycle with the dark cycle starting at 18:00 h. Water was supplied ad libitum. The mice were randomized into the treatment arms to achieve a normal weight distribution. […] The mice were euthanized and tissues harvested 4 h after the last dose. The tissue samples were used for total CoA, pantothenate and pantazine determinations. Blood was collected from euthanized animals, plasma or serum was prepared and stored frozen until analysis. Organs, including liver, forebrain, and hindbrain were quickly excised from euthanized animals and immediately flash frozen in liquid N2 or immersed in RNAlater® (Qiagen) overnight prior to freezing. Forebrain and hindbrain regions were identified. Total CoA was determined using 20–50 mg of tissue (liver, forebrain or hindbrain) homogenized in 2 ml of 1 mM KOH. The pH was adjusted to 12.0 with 0.25 M KOH, and incubated at 55 °C for 2 h[23]. The pH of the sample was adjusted to 8.0, and the samples were derivatized with monobromobimane (mBBr) and analyzed by HPLC equipped with a fluorescence detector.

[2] = molecular target: T10, ABL1(H396P)-phosphorylated (Homo sapiens, UniProt P00519, H396P); assay: KINOMEscan; type: binding; conditions: read-out: %Ctrl @ 10000nM
T10 construct: purchased DiscoverX KINOMEscan

NDR2 = molecular target: T11, NDR2 (Homo sapiens, UniProt Q9Y2H1); assay: KINOMEscan; type: binding; conditions: read-out: %Ctrl @ 10000nM
T11 construct: purchased DiscoverX KINOMEscan

[3] = molecular target: T12, ABL1(T315I)-nonphosphorylated (Homo sapiens, UniProt P00519, T315I); assay: KINOMEscan; type: binding; conditions: read-out: %Ctrl @ 10000nM
T12 construct: purchased DiscoverX KINOMEscan

TEC = molecular target: T13, TEC (Homo sapiens, UniProt P42680); assay: KINOMEscan; type: binding; conditions: read-out: %Ctrl @ 10000nM
T13 construct: purchased DiscoverX KINOMEscan

FLT3(ITD) = type: binding, human
PYK2 = molecular target: T14, PYK2 (Homo sapiens, UniProt Q14289); assay: KINOMEscan; type: binding; conditions: read-out: %Ctrl @ 10000nM
T14 construct: purchased DiscoverX KINOMEscan

GRK7 = molecular target: T15, GRK7 (Homo sapiens, UniProt Q8WTQ7); assay: KINOMEscan; type: binding; conditions: read-out: %Ctrl @ 10000nM
T15 construct: purchased DiscoverX KINOMEscan

AURKA = molecular target: T16, AURKA (Homo sapiens, UniProt O14965); assay: KINOMEscan; type: binding; conditions: read-out: %Ctrl @ 10000nM
T16 construct: purchased DiscoverX KINOMEscan

p38-gamma = molecular target: T17, p38-gamma (Homo sapiens, UniProt P53778); assay: KINOMEscan; type: binding; conditions: read-out: %Ctrl @ 10000nM
T17 construct: purchased DiscoverX KINOMEscan

FLT3(R834Q) = molecular target: T18, FLT3(R834Q) (Homo sapiens, UniProt P36888, R834Q); assay: KINOMEscan; type: binding; conditions: read-out: %Ctrl @ 10000nM
T18 construct: purchased DiscoverX KINOMEscan

BRK = molecular target: T19, BRK (Homo sapiens, UniProt Q13882); assay: KINOMEscan; type: binding; conditions: read-out: %Ctrl @ 10000nM
T19 construct: purchased DiscoverX KINOMEscan
T19 sequence (Q13882 whole entry): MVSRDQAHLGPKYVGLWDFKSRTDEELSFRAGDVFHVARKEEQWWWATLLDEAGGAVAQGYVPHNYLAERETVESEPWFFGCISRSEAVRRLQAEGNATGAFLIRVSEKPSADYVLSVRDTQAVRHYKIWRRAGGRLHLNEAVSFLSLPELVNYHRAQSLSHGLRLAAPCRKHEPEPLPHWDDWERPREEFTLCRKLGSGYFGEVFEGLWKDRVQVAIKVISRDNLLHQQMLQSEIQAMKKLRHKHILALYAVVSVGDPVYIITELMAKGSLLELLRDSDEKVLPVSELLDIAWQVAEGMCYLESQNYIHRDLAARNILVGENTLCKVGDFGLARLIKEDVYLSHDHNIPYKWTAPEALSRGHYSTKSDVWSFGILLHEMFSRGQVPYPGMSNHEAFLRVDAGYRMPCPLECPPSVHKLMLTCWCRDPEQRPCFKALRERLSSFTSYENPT

SYK = molecular target: T20, SYK (Homo sapiens, UniProt P43405); assay: KINOMEscan; type: binding; conditions: read-out: %Ctrl @ 10000nM
T20 construct: purchased DiscoverX KINOMEscan

PFTK1 = molecular target: T21, PFTK1 (Homo sapiens, UniProt O94921); assay: KINOMEscan; type: binding; conditions: read-out: %Ctrl @ 10000nM
T21 construct: purchased DiscoverX KINOMEscan

AURKC = molecular target: T22, AURKC (Homo sapiens, UniProt Q9UQB9); assay: KINOMEscan; type: binding; conditions: read-out: %Ctrl @ 10000nM
T22 construct: purchased DiscoverX KINOMEscan
T22 sequence (Q9UQB9 whole entry): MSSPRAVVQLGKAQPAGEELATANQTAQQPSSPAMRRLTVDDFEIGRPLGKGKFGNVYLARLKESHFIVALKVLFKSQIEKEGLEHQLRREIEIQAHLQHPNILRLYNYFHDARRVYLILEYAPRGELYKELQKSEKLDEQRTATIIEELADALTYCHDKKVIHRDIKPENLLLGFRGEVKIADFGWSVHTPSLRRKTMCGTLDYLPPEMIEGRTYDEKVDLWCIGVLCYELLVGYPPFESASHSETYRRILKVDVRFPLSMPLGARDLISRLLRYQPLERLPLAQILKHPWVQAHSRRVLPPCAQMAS

TNNI3K = molecular target: T23, TNNI3K (Homo sapiens, UniProt Q59H18); assay: KINOMEscan; type: binding; conditions: read-out: %Ctrl @ 10000nM
T23 construct: purchased DiscoverX KINOMEscan

GRK4 = molecular target: T24, GRK4 (Homo sapiens, UniProt P32298); assay: KINOMEscan; type: binding; conditions: read-out: %Ctrl @ 10000nM
T24 construct: purchased DiscoverX KINOMEscan
T24 sequence (P32298 whole entry): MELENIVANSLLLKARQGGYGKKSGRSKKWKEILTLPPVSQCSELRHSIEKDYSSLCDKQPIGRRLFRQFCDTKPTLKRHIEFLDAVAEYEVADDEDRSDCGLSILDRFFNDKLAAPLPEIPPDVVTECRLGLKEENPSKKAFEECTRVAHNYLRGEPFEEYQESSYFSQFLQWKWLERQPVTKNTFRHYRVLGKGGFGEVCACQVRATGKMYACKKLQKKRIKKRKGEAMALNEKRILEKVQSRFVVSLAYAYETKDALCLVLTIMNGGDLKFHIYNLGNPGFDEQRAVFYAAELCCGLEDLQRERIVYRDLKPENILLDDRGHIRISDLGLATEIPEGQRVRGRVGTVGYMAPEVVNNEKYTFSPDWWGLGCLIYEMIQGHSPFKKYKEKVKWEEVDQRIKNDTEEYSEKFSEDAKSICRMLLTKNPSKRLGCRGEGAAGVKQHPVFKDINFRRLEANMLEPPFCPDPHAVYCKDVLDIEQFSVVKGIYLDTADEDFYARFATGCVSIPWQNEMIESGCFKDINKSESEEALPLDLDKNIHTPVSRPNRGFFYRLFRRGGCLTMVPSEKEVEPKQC

CASK = molecular target: T25, CASK (Homo sapiens, UniProt O14936); assay: KINOMEscan; type: binding; conditions: read-out: %Ctrl @ 10000nM
T25 construct: purchased DiscoverX KINOMEscan
T25 sequence (O14936 whole entry): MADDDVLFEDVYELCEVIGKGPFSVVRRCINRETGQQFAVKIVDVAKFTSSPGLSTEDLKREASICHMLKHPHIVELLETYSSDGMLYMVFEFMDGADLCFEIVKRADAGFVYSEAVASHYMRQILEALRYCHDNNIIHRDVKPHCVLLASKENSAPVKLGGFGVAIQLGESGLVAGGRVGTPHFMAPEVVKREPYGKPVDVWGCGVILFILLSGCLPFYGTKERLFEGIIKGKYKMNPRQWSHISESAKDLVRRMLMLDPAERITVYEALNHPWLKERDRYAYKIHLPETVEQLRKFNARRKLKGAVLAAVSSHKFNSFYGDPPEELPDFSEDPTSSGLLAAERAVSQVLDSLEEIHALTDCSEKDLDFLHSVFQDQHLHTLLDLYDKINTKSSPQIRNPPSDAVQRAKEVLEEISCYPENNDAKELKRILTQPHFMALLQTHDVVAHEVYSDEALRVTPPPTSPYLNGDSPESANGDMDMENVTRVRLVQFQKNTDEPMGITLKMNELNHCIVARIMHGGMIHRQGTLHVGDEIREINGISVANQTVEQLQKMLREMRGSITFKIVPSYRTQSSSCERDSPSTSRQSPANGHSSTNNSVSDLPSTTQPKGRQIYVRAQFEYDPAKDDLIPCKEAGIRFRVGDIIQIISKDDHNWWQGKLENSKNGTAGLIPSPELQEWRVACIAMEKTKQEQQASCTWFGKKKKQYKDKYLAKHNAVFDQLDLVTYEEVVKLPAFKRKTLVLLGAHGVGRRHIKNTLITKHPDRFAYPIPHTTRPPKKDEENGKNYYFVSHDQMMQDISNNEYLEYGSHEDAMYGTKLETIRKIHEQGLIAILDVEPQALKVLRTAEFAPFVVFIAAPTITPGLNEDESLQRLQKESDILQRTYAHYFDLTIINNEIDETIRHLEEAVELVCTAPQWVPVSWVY

PRKCQ = molecular target: T26, PRKCQ (Homo sapiens, UniProt Q04759); assay: KINOMEscan; type: binding; conditions: read-out: %Ctrl @ 10000nM
T26 construct: purchased DiscoverX KINOMEscan

FLT3(D835H) = molecular target: T27, FLT3(D835H) (Homo sapiens, UniProt P36888, D835H); assay: KINOMEscan; type: binding; conditions: read-out: %Ctrl @ 10000nM
T27 construct: purchased DiscoverX KINOMEscan

EGFR(S752-I759del) = molecular target: T28, EGFR(S752-I759del) (Homo sapiens, UniProt P00533, DEL752-759); assay: KINOMEscan; type: binding; conditions: read-out: %Ctrl @ 10000nM
T28 construct: purchased DiscoverX KINOMEscan

FLT3 = molecular target: T29, FLT3 (Homo sapiens, UniProt P36888); assay: KINOMEscan; type: binding; conditions: read-out: %Ctrl @ 10000nM
T29 construct: purchased DiscoverX KINOMEscan

IKK-epsilon = molecular target: T30, IKK-epsilon (Homo sapiens, UniProt Q14164); assay: KINOMEscan; type: binding; conditions: read-out: %Ctrl @ 10000nM
T30 construct: purchased DiscoverX KINOMEscan

CAMK1 = molecular target: T31, CAMK1 (Homo sapiens, UniProt Q14012); assay: KINOMEscan; type: binding; conditions: read-out: %Ctrl @ 10000nM
T31 construct: purchased DiscoverX KINOMEscan

CC(C)c1ccc(CC(=O)N2CCN(c3ccc(C#N)nn3)CC2)cc1 [PZ-2891, 6-(4-(2-(4-isopropylphenyl)acetyl)piperazin-1-yl)pyridazine-3-carbonitrile]
remaining binding at 10 µM [1]: 100% | remaining binding at 10 µM (FLT1): 100% | remaining binding at 10 µM (MLK3): 80% | remaining binding at 10 µM (TTK): 96% | remaining binding at 10 µM (TRKB): 100% | remaining binding at 10 µM (TIE2): 97% | remaining binding at 10 µM (BMX): 100% | remaining binding at 10 µM (KIT(V559D)): 81% | remaining binding at 10 µM (FGFR3): 96% | increase in total liver CoA (tissue CoA; 30 mg/kg PZ-2891 alone, oral gavage, 5 doses at 12 h intervals): 50% | increase in liver CoA levels (tissue CoA; 30 mg/kg PZ-2891 plus 200 mg/kg pantothenate, oral gavage, 5 doses at 12 h intervals): 100% | muscle CoA levels (tissue CoA; 112 ppm PZ-2891 in chow, 1 week): not elevated | CoA levels in tissues, 1 week chow (tissue CoA; 112 ppm PZ-2891 in chow, 1000 ppm pantothenate, 1 week): elevated in liver, brain, and to a lesser extent, heart | total CoA in liver, forebrain and hindbrain (tissue CoA; male and female mice, 5 oral doses every 12 h plus 100 mg/kg pantothenate): dose-dependent increase in total CoA | weights or behavior of treated animals (tissue CoA; one-month treatment in diet): no difference in the weights or behavior | liver and brain CoA, 4 weeks diet (tissue CoA; series of PZ-2891 doses in diet, 1000 ppm pantothenate, 4 weeks): significantly elevated | remaining binding at 10 µM [2]: 76% | remaining binding at 10 µM (NDR2): 94% | remaining binding at 10 µM [3]: 63% | remaining binding at 10 µM (TEC): 79% | %Ctrl @ 10000nM (FLT3(ITD)): 99% | remaining binding at 10 µM (PYK2): 90% | remaining binding at 10 µM (GRK7): 93% | remaining binding at 10 µM (AURKA): 75% | remaining binding at 10 µM (p38-gamma): 58% | remaining binding at 10 µM (FLT3(R834Q)): 100% | remaining binding at 10 µM (BRK): 80% | remaining binding at 10 µM (SYK): 82% | remaining binding at 10 µM (PFTK1): 92% | remaining binding at 10 µM (AURKC): 94% | remaining binding at 10 µM (TNNI3K): 76% | remaining binding at 10 µM (GRK4): 52% | remaining binding at 10 µM (CASK): 85% | remaining binding at 10 µM (PRKCQ): 100% | remaining binding at 10 µM (FLT3(D835H)): 92% | remaining binding at 10 µM (EGFR(S752-I759del)): 100% | remaining binding at 10 µM (FLT3): 57% | remaining binding at 10 µM (IKK-epsilon): 89% | remaining binding at 10 µM (CAMK1): 93%

From publication PMC6199309, “A therapeutic approach to pantothenate kinase associated neurodegeneration” (Nature Communications, 2018)
